# According to US20100330128A1, “Method of improving immune function in mammals using lactobacillus strains with certain lipids” (priority 2005, published 2010):
# Test system: lymphocytes separated from spleen and thymus
# Test: Lymphocyte proliferation assay (alamar blue)
# Format: cell-based, BALB/c mice
# Details: 72 hours after addition of stimulant, FIG. 2
# Protocol: Lymphocytes were prepared from the spleen and thymus of BALB/c mice and were incubated with supernatants derived from growing L. reuteri ATCC 55730 in the presence and absence of glycerol (50 mM). L. reuteri ATCC 55730 was selected as it is a known good producer of 3-HPA and thus follows the selection criteria of the invention. Control incubations were performed with glycerol alone, media alone and known lymphocyte proliferation stimulants.
# Separation of spleen and thymus lymphocytes. BALB/c mice were sacrificed by cervical dislocation, and their thymus was separated, immersed in Hanks' balanced salt solution (HBSS) and torn piecemeal to obtain a single cell. The single cell was centrifuged through double layers in Histopaque-1083 (Sigma) to obtain lymphocytes. These cells were washed two times with IMDM, and living cells were counted according to tryphan blue exclusion technique and used in the experiment at an adjusted final concentration of 1×10^7/mL.
# Preparation of bacterial lysates. L. reuteri and Listeria monocytogenes lysates were prepared as mentioned in the phagocytic assay.
# Preparation of L. reuteri supernatants. L. reuteri supernatant was also prepared as mentioned in the phagocytic assay.
# Lymphocyte proliferation assay. Lymphocyte proliferation assay was carried out using lymphocytes suspended in IMDM+10% horse serum at 4×10^6 per well. The lymphocytes were treated with varying concentrations of L. reuteri, L. monocytogenes cell lysate and L. reuteri supernatant along with a reference stimulant, of which concentrations and conditions were as follows:
# In the results reported in Table 2, MRS and glycerol sol. controls were used by adjusting pH in broths which were not incubated with L. reuteri, and the following symbols used: ConA: concanavalin A, PWM: pokeweed mitogen, PHA: phytohemaaglutinin, LPS: liphopholysaccharide from Salmonella enterica serovar Typhimurium.
# Stimulants including ConA were added into a well containing lymphocytes in accordance with each condition, 3 hours before alamar blue was added at 10% concentration. 72 hours after the addition of each stimulant, the level of lymphocyte proliferation was determined by the value of OD570 nm-OD600 nm.
# The result of lymphocyte proliferation was represented as Stimulation Index (SI), which is (ODtreatment-ODmedia control)/ODcell control value. In the case of L. reuteri supernatant treatment group, however, values of J and K treatment groups, but not IMDM+10% horse serum, were used as OD media control value.
row,Substance,lymphocyte proliferation (Stimulation Index)
1,pokeweed mitogen [PWM],marked stimulation of lymphocyte proliferation
2,liphopholysaccharide from Salmonella enterica serovar Typhimurium [LPS],marked stimulation of lymphocyte proliferation
3,concanavalin A [ConA],marked stimulation of lymphocyte proliferation
4,phytohemaaglutinin [PHA],marked stimulation of lymphocyte proliferation
